The record followed here is patent US20030060438A1, “Oligonucleotides and other modulators of the NK-1 receptor pathway and therapeutic uses thereof” (priority 2000, published 2003).

For data set [1], the system named is NK-1 receptor. Briefly: CFA ankle joint arthritis model, ankle circumference, intrathecal oligonucleotide. The settings on record: intrathecal 1 micro grams/microlitres/h from 48 h prior to CFA injection; vs ACSF or MIS. The class given is in vivo, rat. The protocol: Complete Freund's Adjuvant (CFA) injection into the ankle joint of the rat produces two responses, an inflammatory response that begins within 24 hours and lasts approximately one week, and a later inflammatory response combined with symptoms modelling arthritis. Oligonucleotides or ASCF control (artificial cerebral spinal fluid) was administered for 48 h prior to CFA injection and continuously for the testing days (1 micro grams/microlitres/h) via Alzet® minipumps attached to intrathecal catheters for spinal delivery. […] Statistical analysis was performed using a one way ANOVA and post hoc analysis using the Dunnett's test.

Data set [2] deals with NK-1 receptor. In words: Mechanical response thresholds in naive rats, intrathecal oligonucleotide. It counts as in vivo, rat. The settings on record: no surgery; intrathecal 1 micro grams/microlitres/h, prolonged administration. On the procedure: The effect of intrathecal administration of NK-1 receptor antisense oligonucleotide on mechanical response thresholds in naive rats is shown in FIG. 6.
Oligonucleotides or ASCF control (artificial cerebral spinal fluid) were administered for 2 days prior to surgery, and throughout the time course of testing, by continuous infusion (1 micro grams/microlitres/h) via Alzet® minipumps attached to intrathecal catheters for spinal delivery.

Data set [3] has as its system NK-1 receptor. Briefly: CFA ankle joint arthritis model, ankle circumference, systemic oligonucleotide. The class given is in vivo, rat. The settings on record: 300 micro grams/kg, Q12 h, intraperitoneal from 2 days prior to CFA. The protocol:
Complete Freund's Adjuvant (CFA) injection (13.6 micro grams/25 microlitres) into the ankle joint of the rat produces two responses, an inflammatory response that begins within 24 hours and lasts approximately one week, and a later inflammatory response combined with symptoms modeling arthritis. Antisense (AS) oligonucleotide (300 micro grams/kg, Q12 h, intraperitoneal) or saline was administered for 2 days prior to CFA injection and throughout the time course of testing. In control animals CFA induces two phases of response as assessed by ankle circumference; the first is maximal at 48 h after injection and the second at day 18. […] Statistical analysis was performed using a two way ANOVA and post hoc analysis using the tukey's test.

Data set [4] has as its system NK-1 receptor. Briefly: Western blot of NK-1 receptor protein in lumbar spinal cord after intrathecal oligonucleotide, neuropathic pain model. The class given is in vivo, rat. To be noted: intrathecal 2 micro grams/microlitres/h, 48 h prior to sciatic nerve constriction and continuously for 6 days. On the procedure:
Oligonucleotides or ASCF control (artificial cerebral spinal fluid) was administered for 48 h prior to sciatic nerve constriction and continuously for 6 days (2 micro grams/microlitres/h) via Alzet® minipumps attached to intrathecal catheters for spinal delivery. Rats were sacrificed by decapitation and lumbar spinal cords were dissected and processed for Western blotting analysis. Samples were resolved using 10% Tris-glycine gels and the proteins were electroblotted onto nitrocellulose membranes. Molecular mass markers are presented in the right column. The arrow indicates the NK-1 receptor.
(In general: Immunoblotting shows a protein as a band on a membrane.)

Data set [5] concerns NK-1 receptor. Briefly: Substance P-induced thermal hyperalgesia, intrathecal oligonucleotide. The class given is in vivo. To be noted: intrathecal 75 micro grams/10 microlitres Q12h with SP. The protocol:
The effect of intrathecal (spinal) administration of NK-1 receptor antisense oligonucleotide on substance P-induced thermal hyperalgesia is shown in FIG. 1.
Latency to thermal stimulation (baseline (B) recordings) was assessed prior to intrathecal injection of substance P (SP, indicated by the arrow in both upper and lower panels). On day 0 (before oligonucleotide treatment has begun), SP (6.7 nmol/10 microlitres) produced a decrease in thermal latency to response indicating the occurrence of hyperalgesia (exaggerated response to noxious or painful stimulation, hollow symbols on both upper and lower panels). Oligonucleotide treatment (75 micro grams/10 microlitres, Q12h for 6 days) or ASCF control (artificial cerebral spinal fluid) was commenced subsequent to assessment of substance P-induced thermal hyperalgesia on day 0. Intrathecal SP (6.7 nmol/10 microlitres, Q12h for 6 days) was administered, in addition to the oligonucleotide, to stimulate NK-1 receptor turnover. Three days after twice-daily injections of antisense (AS) were begun, SP-induced thermal hyperalgesia was attenuated (upper graph, triangles). […] Statistical analysis was performed by a two way ANOVA with time and treatment as independent measures. Time: F(6,21)=10.234, p<0.01, Treatment: F(6,21)=8.245, p<0.05.

The test system of data set [6] is NK-1 receptor. Briefly: Neuropathic pain model (sciatic nerve constriction), mechanical allodynia by von Frey hairs, intrathecal oligonucleotide. The class given is in vivo, rat. The protocol:
Neuropathic pain is a continuous, permanent pain that results from nerve damage. One common feature of neuropathic pain is mechanical allodyina (a painful response to a non-painful stimulus). Humans with neuropathic pain cannot wear clothing on affected regions of the skin or cannot stand in air currents, because their sensitivity is so profound. Neuropathic pain was induced by constriction of the sciatic nerve. Mechanical response thresholds (grams of force) were assessed by application of von Frey hairs to the plantar surface of the ipsilateral hind paw for all groups prior to sciatic nerve constriction surgery (baseline values: B). Oligonucleotides or ASCF control ([…]) via Alzet® minipumps attached to intrathecal catheters for spinal delivery. […] Statistical analyses on mechanical thresholds were performed using the non-parametric Friedman's repeated measures analysis of variance on ranks followed by Wilcoxon signed rank test for post hoc comparisons. […] The lower panel illustrates the mechanical response thresholds are not affected in the contralateral hind paw.
Neuropathic pain was induced by constriction of the sciatic nerve. Mechanical response thresholds (grams of force) were assessed by application of von Frey hairs to the plantar surface of the ipsilateral hind paw for all groups prior to sciatic nerve constriction surgery (baseline values: B). Oligonucleotides or ASCF control ([…]) via Alzet® minipumps attached to intrathecal catheters for spinal delivery.
(§1) Neuropathic pain was induced by constriction of the sciatic nerve. Mechanical response thresholds (grams of force) were assessed by application of von Frey hairs to the plantar surface of the ipsilateral hind paw for all groups prior to sciatic nerve constriction surgery (baseline values: B). Oligonucleotides or ASCF control (artificial cerebral spinal fluid) was administered for 72 h by continuous infusion (2 micro grams/microlitres/h) via Alzet® minipumps attached to intrathecal catheters for spinal delivery starting 6 days following nerve constriction (once the mechanical allodynia was established in all groups).
as §1, with “6 days” for “72 h”, “(0.45” for “(2”, “7” for “6”

Data set [7] relates to NK-1 receptor. In words: Intradermal substance P-induced plasma extravasation in skin (Evans blue). To be noted: 300 micro grams/kg, Q12 h, intraperitoneal for 6 days; intradermal substance P 6.7 nmol/100 microlitres. The class given is in vivo, rat. On the procedure:
Intradermal injection of substance P and neurokinin A produce a wheal and flare inflammatory reaction. Antisense (AS) oligonucleotide (300 micro grams/kg, Q12 h, intraperitoneal) or saline was administered for 6 days prior to experimentation. Substance P or neurokinin A was injected into the dermis of the skin (6.7 nmol/100 microlitres) after intravenous administration of evans blue dye which allows for assessment of neuropeptide-induced plasma extravasation. […] Statistical analysis was performed using an unpaired t-test.

[8] abbreviates: intrathecal 2 micro grams/microlitres/h for 72 h starting 6 days following nerve constriction.

“5′gac gtt atc cat ttt ggg g3′ (antisense GACGTTATCCATTTTGGGG; listed as DNA, chemistry not fully specified) [NK-1 receptor antisense oligonucleotide used in all experiments]”: in the data set on NK-1 receptor [1], the “magnitude of inflammation, measured as ankle circumference” value was “less”. Also, in the data set with NK-1 receptor [2], the “mechanical response (withdrawal) threshold of either hind limb in naive rats” value is “had no effect”. Besides, in the data set on NK-1 receptor [3] (first phase maximal at 48 h), the “magnitude of inflammation, measured as ankle circumference, first phase” value is listed as “less”. The “magnitude of inflammation, measured as ankle circumference, second phase” value in the data set on NK-1 receptor [3] (second phase maximal at day 18) is recorded as “less”. Also, in the data set on NK-1 receptor [4], the “NK-1 receptor protein expression (Western blot) compared to ACSF control” value was “significantly attenuates the protein expression”. Also, the “SP-induced thermal hyperalgesia (thermal latency)” value with NK-1 receptor [5] (six days after start) is listed as “further decrease in the response to SP”. Further, in the data set on NK-1 receptor [5] (three days after start), the “SP-induced thermal hyperalgesia (thermal latency)” value was “attenuated”. Besides, the “reversal of established mechanical allodynia, lower dose” value in the data set with NK-1 receptor [6] (intrathecal 0.45 micro grams/microlitres/h for 6 days starting 7 days following nerve constriction) is listed as “had no effect in reversing the decrease in mechanical thresholds”. The “prevention of mechanical allodynia, delivery to sacral rather than lumbar spinal cord” value with NK-1 receptor [6] (intrathecal 1 micro grams/microlitres/h from 2 days prior to surgery, catheter just less than 1 cm from lumbar level) is on record as “failed to prevent the development of allodynia”. In addition, in the data set with NK-1 receptor [6] (setting [8]), the “mechanical response threshold, contralateral side” value is recorded as “no effect” and the “reversal of established mechanical allodynia, ipsilateral hind paw” value is “reversed allodynia”. Further, the “mechanical response threshold, ipsilateral hind paw (prevention of mechanical allodynia)” value with NK-1 receptor [6] (intrathecal (lumbar) 1 micro grams/microlitres/h from 2 days prior to sciatic nerve constriction and throughout testing) is “did not show a decrease in their threshold of mechanical stimulation”. The “substance P-induced plasma extravasation (skin)” value in the data set with NK-1 receptor [7] is “significantly reduced”.
